Experimental data reported in PMC11822212, “High-throughput screening identifies Aurora kinase B as a critical therapeutic target for Merkel cell carcinoma” (Nature Communications, 2025).
Structures can show the parent of a compound that is named as a salt. Where two headings read alike, the source gives them in different places.

Tests used:
CRL-7250 cells = assay: qHTS cell viability (CellTiter-Glo, 72 h; primary screen), control cell line; format: cell-based
HEK293T cells = assay: as above; format: cell-based, human
[1] = system: VN-MCC cell lines (MCC13, MCC26, UISO); assay: qHTS cell viability, VN-MCC cell lines as a group (mean AUC, VN.MCC.avg); format: cell-based, human
MCC13 cells (VN-MCC) = assay: qHTS cell viability (CellTiter-Glo, 72 h; primary and follow-up small molecule screen); format: cell-based, human
MKL-1 cells (VP-MCC) = assay: as above; format: cell-based, human
MKL-2 cells (VP-MCC) = assay: as above; format: cell-based, human
[2] = system: control cell lines (HACAT, HEK293T, CRL-7250, NIH-3T3); assay: qHTS cell viability, control cell lines as a group (mean AUC, Control.avg); format: cell-based
[3] = system: MCC cell lines (WAGA, MKL-1, MKL-2, MCC13, MCC26, UISO); assay: qHTS cell viability, all six MCC cell lines as a group (mean AUC, MCC.avg); format: cell-based, human
[4] = system: six MCC cell lines and four control cell lines; assay: qHTS cell viability, all 10 cell lines screened; format: cell-based
[5] = system: VP-MCC cell lines (WAGA, MKL-1, MKL-2); assay: qHTS cell viability, VP-MCC cell lines as a group (mean AUC, VP.MCC.avg); format: cell-based, human
NIH-3T3 cells = assay: qHTS cell viability (CellTiter-Glo, 72 h; primary screen), control cell line; format: cell-based, mouse
UISO cells (VN-MCC) = assay: qHTS cell viability (CellTiter-Glo, 72 h; primary and follow-up small molecule screen); format: cell-based, human
WAGA cells (VP-MCC) = assay: as above; format: cell-based, human
MCC26 cells (VN-MCC) = assay: as above; format: cell-based, human
HACAT cells = assay: qHTS cell viability (CellTiter-Glo, 72 h; primary screen), control cell line; format: cell-based, human
[6] = NPC library, qHTS dose-response AUC, CRL7250 control
[7] = NPC library; qHTS dose-response AUC, HEK293T control
[8] = NPC library, mean AUC of VN-MCC cell lines
[9] = NPC library, therapeutic window: Control avg AUC minus VN-MCC avg AUC
[10] = NPC library, qHTS dose-response AUC, MCC13
[11] = NPC library, qHTS dose-response AUC, MKL1
[12] = NPC library, qHTS dose-response AUC, MKL2
[13] = NPC library, mean AUC of control cell lines
[14] = NPC library, mean AUC of six MCC cell lines
[15] = NPC library, therapeutic window: Control avg AUC minus MCC avg AUC
[16] = NPC library, mean AUC of VP-MCC cell lines
[17] = NPC library, therapeutic window: Control avg AUC minus VP-MCC avg AUC
[18] = NPC library, qHTS dose-response AUC, NIH3T3 control
[19] = NPC library, qHTS dose-response AUC, UISO
[20] = NPC library, qHTS dose-response AUC, WAGA
[21] = NPC library; qHTS dose-response AUC, MCC26
[22] = NPC library, qHTS dose-response AUC, HACAT control

| Structure (SMILES) | CRL7250_AUC (CRL-7250 cells) | HEK293T_AUC (HEK293T cells) | Control-VN-MCC [1] | VN-MCC_Avg_AUC [1] | CRL7250_AUC (CRL-7250 cells; [6]) | HEK293T_AUC (HEK293T cells; [7]) | VN-MCC_Avg_AUC [1, 8] | Control-VN-MCC [1, 9] | MCC13_AUC (MCC13 cells (VN-MCC); [10]) | MKL1_AUC (MKL-1 cells (VP-MCC); [11]) | MKL2_AUC (MKL-2 cells (VP-MCC); [12]) | Control_Avg_AUC [2, 13] | MCC_Avg_AUC [3, 14] | Control-MCC [4, 15] | VP-MCC_Avg_AUC [5, 16] | Control-VP-MCC [5, 17] | NIH3T3_AUC (NIH-3T3 cells; [18]) | UISO_AUC (UISO cells (VN-MCC); [19]) | WAGA_AUC (WAGA cells (VP-MCC); [20]) | HACAT_AUC (HACAT cells; [22]) | other results |
| --- | --- | --- | --- | --- | --- | --- | --- | --- | --- | --- | --- | --- | --- | --- | --- | --- | --- | --- | --- | --- | --- |
| Cl.Oc1ccc2c3c1O[C@H]1[C@@H](O)C=C[C@H]4[C@@H](C2)NCC[C@@]341 [N-Normorphine hydrochloride] | 485.195 | 480.826 | 45.2651 | 438.301 |  |  |  |  |  |  |  |  |  |  |  |  |  |  |  |  | MCC13_AUC (MCC13 cells (VN-MCC)): 466.371; MKL1_AUC (MKL-1 cells (VP-MCC)): 418.832; MKL2_AUC (MKL-2 cells (VP-MCC)): 420.551; Control_Avg_AUC [2]: 483.566; MCC_Avg_AUC [3]: 427.82; Control-MCC [4]: 55.7462; Control-VP-MCC [5]: 66.2273; VP-MCC_Avg_AUC [5]: 417.339; NIH3T3_AUC (NIH-3T3 cells): 490.376; UISO_AUC (UISO cells (VN-MCC)): 440.259; WAGA_AUC (WAGA cells (VP-MCC)): 412.634; MCC26_AUC (MCC26 cells (VN-MCC)): 408.273; HACAT_AUC (HACAT cells): 477.868 |
| CNS(=O)(=O)CCc1ccc2[nH]cc(C3CCN(C)CC3)c2c1 [Naratriptan hydrochloride] |  |  |  |  | 454.782 | 455.258 | 429.254 | 33.4153 | 448.681 | 385.118 | 428.785 | 462.669 | 418.966 | 43.7027 | 408.679 | 53.9902 | 449.036 | 436.144 | 412.133 | 491.601 | MCC26_AUC (MCC26 cells (VN-MCC); [21]): 402.936 |
| Cc1ccc([N+](=O)[O-])[c]2c1[O][Hg]2 [Nitromersol] | 286.086 | 310.441 | 18.7838 | 326.845 |  |  |  |  |  |  |  |  |  |  |  |  |  |  |  |  | MCC13_AUC (MCC13 cells (VN-MCC)): 325.021; MKL1_AUC (MKL-1 cells (VP-MCC)): 252.702; MKL2_AUC (MKL-2 cells (VP-MCC)): 228.637; Control_Avg_AUC [2]: 345.629; MCC_Avg_AUC [3]: 290.488; Control-MCC [4]: 55.1407; Control-VP-MCC [5]: 91.4976; VP-MCC_Avg_AUC [5]: 254.131; NIH3T3_AUC (NIH-3T3 cells): 388.302; UISO_AUC (UISO cells (VN-MCC)): 294.101; WAGA_AUC (WAGA cells (VP-MCC)): 281.054; MCC26_AUC (MCC26 cells (VN-MCC)): 361.414; HACAT_AUC (HACAT cells): 397.686 |
| N=C(N)NN=C(/C=C/c1ccc([N+](=O)[O-])o1)/C=C/c1ccc([N+](=O)[O-])o1 [Nitrovin] |  |  |  |  | 323.737 | 356.338 | 384.368 | -13.9562 | 392.271 | 291.263 | 260.273 | 370.412 | 325.445 | 44.9672 | 266.521 | 103.891 | 385.648 | 349.388 | 248.028 | 415.924 | MCC26_AUC (MCC26 cells (VN-MCC); [21]): 411.446 |
| CCCCCCCCOc1ccccc1C(=O)Nc1ccc(C(=O)OCC[N+](C)(CC)CC)cc1 [Octylonium bromide] |  |  |  |  | 483.471 | 439.213 | 418.414 | 46.4688 | 437.863 | 364.23 | 359.851 | 464.883 | 399.88 | 65.0028 | 381.346 | 83.5367 | 470.129 | 389.713 | 419.958 | 466.719 | HEK293T_AUC (HEK293T cells; NPC library, qHTS dose-response AUC, HEK293T control): 439.212; Control-VN-MCC ([1]; Control AUC minus VN-MCC AUC): 46.4688; MCC_Avg_AUC ([3]; NPC library, mean AUC of all 6 MCC cell lines): 399.88; Control-VP-MCC ([5]; Control AUC minus VP-MCC AUC): 83.5367; MCC26_AUC (MCC26 cells (VN-MCC); NPC library, qHTS dose-response AUC, MCC26): 427.666 |
